How the values were obtained:
[1] = system: Hh pathway activity; assay: Gli-luciferase reporter assay, Shh-induced Hh pathway activity (ShhLightII cells); assay type: cell-based
From the text: (§1) NIH/3T3 cells were maintained in DMEM containing 10% (v/v) calf serum, penicillin, streptomycin, and L-glutamine. HEK293, L, cos 7, and suFU−/− mouse embryonic fibroblast cells were maintained in DMEM containing 10% (v/v) fetal bovine serum, penicillin, streptomycin, and L-glutamine. Smo::EGFP, SmoM2::GFP, and Ivs::tagRFPT were cloned into pBabe to generate retroviral particles for infection. Smo::EGFP/Ivs::tagRFPT and SmoM2::GFP/Ivs::tagRFPT stable cell lines were generated through viral infection of NIH/3T3^12. A ShhLightII Gli reporter cell line was obtained from the American Type Culture Collection (ATCC) and used in luciferase reporter assays to measure Hh pathway activity. The cell line contains a stably integrated Gli-responsive Firefly luciferase reporter and a constitutive Renilla luciferase expression construct^33. Subclones expressing Smo or SmoM2 in ShhLightII cells were used for chemical epistasis analyses.
(§2) Hh activity assays were performed using ShhLightll cells, Smo/Lightll cells, SmoM2/Lightll cells, and suFU−/− mouse embryonic fibroblasts. In the suFU−/− cells, Hh activity was measured after co-transfection with Gli driven firefly luciferase and TK-renilla luciferase reporters^41. Wnt activity was measured in 293 cells co-transfected with Top-flash and TK-renilla luciferase reporters^42. Cells were cultured and treated in 96 well assay plates (Corning) and incubated with Duo-Glo luciferase substrates (Promega) to measure firefly and renilla luciferase activity sequentially using a Top Count NX Microplate Scintillation and Luminescence Counter (Perkin Elmer). The renilla luciferase signal was used to normalize the firefly reporter activity.
(§3) ShhLightII cells and SmoM2/LightII cells were cultured and treated in 96 well assay plates (Corning) and incubated with Duo-Glo luciferase substrates (Promega) to sequentially measure firefly and renilla luciferase activity. Smo, or GFP, expression plasmids were co-transfected into 3T3 cells together with a Gli-responsive firefly reporter and a TK-renilla luciferase reporter contruct to monitor effects of Smo overexpression. Co-transfection of the two reporter constructs was conducted in assays measuring Hh pathway activity in suFU−/− cells. Wnt activity was measured following co-transfection of a Top-flash and renilla luciferase reporter. In both Hh and Wnt activity assays, renilla luciferase reporter activity, or mass of protein, was used to normalize expression values. Luciferase signal was read by TopCount NX Microplate Scintillation and Luminescence Counter (Perkin Elmer). Quantitative PCR probes for Ptch1, Gli1, and β-actin were purchased from Applied Biosystems. Reactions and measurements were performed using on an Applied Biosystems 7900HT at Harvard FAS Center of System Biology. β-actin was used to normalize Ptch1 and Gil1 values.

[2] = system: Smo; assay: Bodipy-cyclopamine competition assay in Cos 7 cells expressing Smo; assay type: binding; conditions: for competition of Bodipy-Cyc binding to Smo: cells over-expressing Smo, 5 nM Bodipy-cyclopamine
Procedure: Cos 7 cells were transfected with a plasmid co-expressing Smo and a nuclear localized form of tagRFPT (pCIT-Smo). An empty parental construct (pCIT), and a construct that co-expresses SmoM2, were used as controls to assess specificity and background noise. Three days after transfection, cells were incubated with 5 nM Bodipy-cyclopamine, with or without other compounds for 1 hour at 37 °C. Cells were washed, fixed and stained with Hoechst. Images were collected by an Opera High Content Screen System. Bodipy fluorescence was quantified specifically for transfected cells (determined by red tagRFPT+ nucleus) using a program developed by the authors with Acapella 2.0 software. All of the images were scanned with identical microscopic settings and analyzed with the same input parameters.
Cos 7 cells were transfected with a plasmid that co-expresses Smo and a nuclear localized tagRFPT marker (pCIT-Smo). The empty parental construct (pCIT) and a construct that co-express SmoM2 were used as controls to assess specificity and background signal. Three days after transfection, cells were incubated with 5 nM Bodipy-cyclopamine, with or without additional compounds, for 1 hour at 37° C. Cells were then fixed and stained with Hoechst. Images were collected with the Opera High Content Screen System. Fluorescence values were assessed in transfected cells (red nuclei) with a program developed by the authors using Acapella 2.0 software. All of images were scanned with identical microscopic setting and analyzed with the same input parameters.

[3] = system: cerebellar granule neuron precursors (CGNPs) from P7 Ptch1+/− mice; assay: CGNP proliferation assay (pH3 positive cells); assay type: cell-based
Procedure: CGNP primary cells were isolated from P7 Ptch1+/− mice as previously reported^43 and immediately seeded in poly-D-lysine coated imaging plates (Greiner Bio-one). Compounds were applied 2 hours post seeding, for either 36 (FIG. 5a-b) or 72 hours (FIG. 5d-e). After completion of each experimental regimen, cells were fixed with 4% paraformaldehyde (Electron Microscopy Sciences), and stained with anti-pH3 antibody (Upstate; 1:100) followed by a secondary antibody (Invitrogen) and Hoechst (Invitrogen). Images were then collected using a confocal microscope. Cell proliferation, as marked by a pH3 signal, was quantified with an in-house program developed by the authors using Acapella 2.0 software. Identical microscopic settings were used in each analysis and identical input parameters were implemented for each experiment.
CGNP primary cells were isolated from P7 Ptch1+/− mice as previously reported^44. Cells were seeded in poly-D-lysine coated imaging plates (Greiner Bio-one), treatments were applied 2 hours thereafter and last for 36 hours. Cells then were fixed with 4% paraformaldehyde (Electron Microscopy Sciences), and stained with anti-pH3 antibody (Upstate; 1:100) followed by a secondary antibody (Invitrogen) and Hoechst (Invitrogen). Images were collected and cell proliferation quantified with a program developed by the authors utilizing Acapella 2.0 software. All of the images in each experiment were collected with identical microscopic settings and analyzed with identical input parameters.

[4] = system: Wnt signaling activity; assay: Wnt Top-flash reporter assay; assay type: cell-based; conditions: with or without Wnt3a
Procedure: as §2, §3

[5] = system: Hh pathway activity; assay: Priming and withdrawal of compound followed by Shh stimulation, Gli-luciferase reporter (hypersensitivity); assay type: cell-based; conditions: for hypersensitivity to Hh pathway stimulation after priming with and removal of compound, Gli-luciferase: priming 24 hours, washout, then Shh (or SAG) stimulation
Procedure: as §2
Following the removal of drug containing medium, and extensive washing, cells were stimulated with either Hh ligand, or the direct-binding Smo agonist SAG^17,18.
as §3

[6] = target: Smo::GFP (Homo sapiens, UniProt Q99835); assay: Ciliary accumulation of Smo::GFP upon overexpression (3T3/Smo::GFP Overexpression/Ivs::tagRFPT); assay type: cell-based; conditions: stimulus none, read-out: IC50, inhibiton of ciliary accumulation of Smo::GFP upon overexpression
Procedure: Cells were cultured and treated in 384-well imaging plate precoated with poly-D-Lysine (Greiner Bio-one), fixed with 4% paraformaldehyde (Electron Microscopy Sciences), and stained with Hoechst (Invitrogen). Images were collected using Opera High Content Screening System (Perkin Elmer). Activityl)ase (IDBS Inc, Emeryvill, Calif.) and Pipeline Pilot (Accelrys, Inc. San Diego, Calif.) were used for high content screening data management and analysis. Acapella 2.0 software (Evotec Technologies/PerkinElmer) was used to perform multi-parametrical high content image quantification. All the images for comparison were scanned with identical microscopic settings and analyzed with the same input parameters.
Acapella 2.0 software (Evotec Technologies/PerkinElmer) was used to perform multi-parametric high content image quantification. Our image analysis script used Ivs::tagREPT to first determine the location of the PC and then Smo::EGFP to quantify the level of Smo present in the cilium.

[7] = system: SmoM2; assay: Gli-luciferase reporter induced by SmoM2::GFP overexpression (SmoM2/LightII cells); assay type: cell-based
From the text: as §1, §2, §3

[8] = system: Hh pathway activation induced by loss of suFU; assay: Gli-luciferase assay in suFU−/− mouse embryonic fibroblasts; assay type: cell-based; conditions: suFU−/− cells
Procedure: as §2
ShhLightII cells and SmoM2/LightII cells were cultured and treated in 96 well assay plates (Corning) and incubated with Duo-Glo luciferase substrates (Promega) to sequentially measure firefly and renilla luciferase activity. […] Wnt activity was measured following co-transfection of a Top-flash and renilla luciferase reporter. […] Luciferase signal was read by TopCount NX Microplate Scintillation and Luminescence Counter (Perkin Elmer). Quantitative PCR probes for Ptch1, Gli1, and β-actin were purchased from Applied Biosystems. […]

Smo::GFP, sequence (Q99835 28-787): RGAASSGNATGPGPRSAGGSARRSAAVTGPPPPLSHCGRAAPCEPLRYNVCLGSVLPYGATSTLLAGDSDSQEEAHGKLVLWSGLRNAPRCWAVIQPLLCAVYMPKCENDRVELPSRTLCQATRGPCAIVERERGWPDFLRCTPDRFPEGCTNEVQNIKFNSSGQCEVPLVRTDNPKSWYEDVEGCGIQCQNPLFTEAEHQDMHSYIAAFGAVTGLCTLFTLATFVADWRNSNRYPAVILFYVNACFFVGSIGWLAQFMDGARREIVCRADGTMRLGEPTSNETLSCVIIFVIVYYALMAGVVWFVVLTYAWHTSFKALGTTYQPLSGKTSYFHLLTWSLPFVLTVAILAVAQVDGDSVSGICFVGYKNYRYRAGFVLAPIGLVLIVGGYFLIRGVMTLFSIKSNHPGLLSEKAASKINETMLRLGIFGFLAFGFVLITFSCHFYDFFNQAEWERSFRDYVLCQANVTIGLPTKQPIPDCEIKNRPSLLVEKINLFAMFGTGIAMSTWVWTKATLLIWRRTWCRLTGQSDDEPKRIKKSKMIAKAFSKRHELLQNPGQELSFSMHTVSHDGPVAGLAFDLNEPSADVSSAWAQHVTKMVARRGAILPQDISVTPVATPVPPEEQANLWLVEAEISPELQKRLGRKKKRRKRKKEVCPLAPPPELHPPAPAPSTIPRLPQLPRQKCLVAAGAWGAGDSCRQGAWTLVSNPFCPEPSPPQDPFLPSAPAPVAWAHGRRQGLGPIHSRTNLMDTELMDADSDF

Row | SMILES | effect of co-stimulation on Shh-induced transcriptional response ([1]; 10 μM FA together with Shh) | competition of Bodipy-Cyc binding to Smo [2] | effect on GDC0449 inhibition of Shh-stimulated CGNP proliferation ([3]; FA 10 μM co-administered with GDC0449) | Shh-driven CGNP proliferation ([3]; FA 10 μM with Shh) | number of proliferative pH3 positive CGNPs ([3]; FA 120 μM) | effect on Wnt pathway reporter activity [4] | EC50 ([5]; cells treated 24 hours, compound withdrawal prior to Shh addition, read-out: EC50 of induced response to priming) [nM] | hypersensitivity to Hh pathway stimulation after priming with and removal of compound, Gli-luciferase [5] | IC50 ([1]; Mus musculus, Shh Light II, 3T3/Shh-LightII cells, stimulus Shh, read-out: IC50, inhibition of Shh-induced expression of Gli-luciferase reporter) [nM] | IC50 [6] [nM] | IC50 ([7]; Mus musculus, Shh Light II, 3T3/SmoM2::GFP Overexpression/Shh-LightII, stimulus none, read-out: IC50, inhibition of expression of Gli-luciferase reporter induced by SmoM2::GFP overexpression) [nM] | effect on SmoM2 driven Hh pathway activity, transcriptional reporter ([7]; SmoM2 overexpression) | IC50 ([2]; Cos7/Smo expression, stimulus none, read-out: IC50, competition of BODIFY-cyclopamine-Smo binding) [nM] | Shh driven hyperactivation after removal of compound, CGNP proliferation assay ([3]; CGNPs, after removal of compound) | IC50 ([3]; Mus musculus, Neuron, pH 3, Ptch ± CGNP, stimulus Shh, read-out: IC50, Shh induced cell proliferation marked by pH 3) [nM] | effect on Shh-induced pH3 marked proliferation of CGNPs ([3]; Ptch1+/− CGNPs, Shh) | effect on Hh pathway activation induced by loss of suFU [8]
1 | CC1(C)O[C@@H]2C[C@H]3[C@@H]4C[C@H](F)C5=CC(=O)C=C[C@]5(C)[C@@]4(F)[C@@H](O)C[C@]3(C)[C@]2(C(=O)CO)O1 [FA, fluocinolone acetonide] | dose-dependent enhancement | dose-dependent competition | impaired | markedly enhanced | elevated | no change was detected | ~4000 | higher induction of pathway activity | – | – | – | – | – | – | – | – | –
2 | CCN(CC)c1ccc(/C=N/NC(=O)c2ccc(O)cc2)cc1 [DY131] | – | effective competitor | – | – | – | absence of an inhibitory activity | – | no Shh driven hyperactivation | 2000 | 80 | > 30000 | failed to inhibit | 100 | no Shh driven hyperactivation | < 625 | dramatically decreased | does not alter
